According to US20250186434A1, “SOS1 PROTEIN DEGRADERS, PHARMACEUTICAL COMPOSITIONS THEREOF, AND THEIR THERAPEUTIC APPLICATIONS” (BioTheryX, Inc., priority 2022, published 2025):

Target: T1, HiBiT-tagged endogenous SOS1 protein (Homo sapiens, UniProt Q07889)
T1 construct: HEK293 cells were engineered to express a HiBiT-tagged endogenous SOS1 protein; endogenous in cells; host or cells: HEK293 (engineered, HiBiT knock-in at the endogenous SOS1 locus)
T1 sequence (Q07889 1-1333): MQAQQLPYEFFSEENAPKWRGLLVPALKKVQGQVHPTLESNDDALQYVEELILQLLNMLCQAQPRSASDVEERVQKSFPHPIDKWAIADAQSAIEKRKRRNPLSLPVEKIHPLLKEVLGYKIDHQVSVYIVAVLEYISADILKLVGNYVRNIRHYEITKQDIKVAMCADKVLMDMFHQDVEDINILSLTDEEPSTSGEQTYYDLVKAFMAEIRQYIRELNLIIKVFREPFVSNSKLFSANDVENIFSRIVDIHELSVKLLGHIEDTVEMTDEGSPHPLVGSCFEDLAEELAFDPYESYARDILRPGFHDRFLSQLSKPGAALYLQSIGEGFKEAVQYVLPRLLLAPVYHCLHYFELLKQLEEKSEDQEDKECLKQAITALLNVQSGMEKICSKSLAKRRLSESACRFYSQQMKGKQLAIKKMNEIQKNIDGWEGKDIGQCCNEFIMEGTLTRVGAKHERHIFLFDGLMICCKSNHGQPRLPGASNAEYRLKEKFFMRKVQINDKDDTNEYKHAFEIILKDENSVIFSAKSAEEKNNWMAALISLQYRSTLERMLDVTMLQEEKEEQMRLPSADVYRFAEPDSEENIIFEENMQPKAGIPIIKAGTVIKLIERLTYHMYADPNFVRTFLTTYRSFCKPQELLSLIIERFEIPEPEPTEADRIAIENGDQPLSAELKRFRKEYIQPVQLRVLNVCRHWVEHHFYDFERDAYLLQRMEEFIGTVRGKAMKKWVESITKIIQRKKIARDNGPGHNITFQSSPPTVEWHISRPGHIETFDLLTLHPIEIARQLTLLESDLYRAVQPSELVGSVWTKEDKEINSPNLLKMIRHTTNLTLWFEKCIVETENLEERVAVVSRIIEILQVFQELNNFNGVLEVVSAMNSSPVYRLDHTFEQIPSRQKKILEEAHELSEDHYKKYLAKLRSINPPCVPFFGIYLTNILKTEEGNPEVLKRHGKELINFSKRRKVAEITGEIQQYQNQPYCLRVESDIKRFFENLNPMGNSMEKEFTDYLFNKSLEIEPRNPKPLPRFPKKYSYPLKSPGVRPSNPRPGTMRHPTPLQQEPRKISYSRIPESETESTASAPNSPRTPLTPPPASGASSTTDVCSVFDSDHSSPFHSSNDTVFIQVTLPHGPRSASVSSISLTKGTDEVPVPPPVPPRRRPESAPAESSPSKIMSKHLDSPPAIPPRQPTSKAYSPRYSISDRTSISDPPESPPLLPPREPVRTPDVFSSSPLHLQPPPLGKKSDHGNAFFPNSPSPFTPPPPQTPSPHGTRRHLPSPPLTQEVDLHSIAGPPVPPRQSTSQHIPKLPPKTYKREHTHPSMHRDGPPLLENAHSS
Assay: SOS1-HiBiT Degradation Assay
Assay type: cell-based
Settings: HEK293 cells expressing HiBiT-tagged endogenous SOS1, 6 h treatment
Procedure: HEK293 cells were engineered to express a HiBiT-tagged endogenous SOS1 protein. The cells were cultured in DMEM media supplemented with 10% fetal bovine serum, streptomycin, and penicillin. The cells were seeded in a white walled 384-well plate at 12,500 cells/well in 50 μL culture media. The cells were incubated at 37° C. under 5% CO2 overnight. The cells were then treated with DMSO (control) or a compound for 6 h at 37° C. under 5% CO2. After incubation, 25 μL media was removed from each cell and 25 μL NANO-GLO® lytic detection reagent was added to each well. After a 10 min incubation with shaking, luminescence was measured using a PERKINELMER ENVISION® multimode plate reader.

Compound	DC50 [µM]	Dmax [%]
Cc1c([C@@H](C)Nc2nnc(C)c3ccc(N4CCN(CCCCCCCCCN5CCC(c6cc7c(cc6F)C(=O)N(C6CCC(=O)NC6=O)C7)CC5)CC4)cc23)cccc1C(F)(F)F (stereo partly drawn) [Compound A103, 3-(6-Fluoro-5-(1-(9-(4-(1-methyl-4-(((R)-1-(2-methyl-3-(trifluoromethyl)phenyl)-ethyl)amino)phthalazin-6-yl)piperazin-1-yl)nonyl)piperidin-4-yl)-1-oxoisoindolin-2-yl)-piperidine-2,6-dione]	≤ 0.1	≥ 70
Cc1c([C@@H](C)Nc2nnc(C)c3ccc(N4CCN(CCCCCN5CCC(c6cc7c(cc6F)C(=O)N(C6CCC(=O)NC6=O)C7)CC5)CC4)cc23)cccc1C(F)(F)F (stereo partly drawn) [Compound A101, 3-(6-fluoro-5-(1-(5-(4-(1-methyl-4-(((R)-1-(2-methyl-3-(trifluoromethyl)phenyl)-ethyl)amino)phthalazin-6-yl)piperazin-1-yl)pentyl)piperidin-4-yl)-1-oxoisoindolin-2-yl)-piperidine-2,6-dione]	≤ 0.1	≥ 70
Cc1c([C@@H](C)Nc2nnc(C)c3ccc(N4CCN(CCCCCCCCCN5CCN(C(=O)CNc6cccc7c(C8CCC(=O)NC8=O)nn(C)c67)CC5)CC4)cc23)cccc1C(F)(F)F (stereo partly drawn) [Compound A203, 3-(1-methyl-7-((2-(4-(9-(4-(1-methyl-4-(((R)-1-(2-methyl-3-(trifluoromethyl)-phenyl)ethyl)amino)phthalazin-6-yl)piperazin-1-yl)nonyl)piperazin-1-yl)-2-oxoethyl)amino)-1H-indazol-3-yl)piperidine-2,6-dione]	≤ 0.1	≥ 70
Cc1c([C@@H](C)Nc2nnc(C)c3ccc(N4CCN(CCCCCN5CCN(C(=O)CNc6ccc(C7CCC(=O)NC7=O)cc6)CC5)CC4)cc23)cccc1C(F)(F)F (stereo partly drawn) [Compound A301, 3-(4-((2-(4-(5-(4-(1-Methyl-4-(((R)-1-(2-methyl-3-(trifluoromethyl)phenyl)-ethyl)amino)phthalazin-6-yl)piperazin-1-yl)pentyl)piperazin-1-yl)-2-oxoethyl)amino)phenyl)-piperidine-2,6-dione]	> 2	< 30
Cc1c([C@@H](C)Nc2nnc(C)c3ccc(N4CCN(CCCCCCCCCN5CCN(C(=O)CNc6ccc(C7CCC(=O)NC7=O)cc6)CC5)CC4)cc23)cccc1C(F)(F)F (stereo partly drawn) [Compound A303, 3-(4-((2-(4-(9-(4-(1-methyl-4-(((R)-1-(2-methyl-3-(trifluoromethyl)phenyl)-ethyl)amino)phthalazin-6-yl)piperazin-1-yl)nonyl)piperazin-1-yl)-2-oxoethyl)amino)phenyl)-piperidine-2,6-dione]	≤ 0.1	≥ 70
COc1cc2nc(C)nc(N[C@H](C)c3cc(N)cc(C(F)(F)F)c3)c2cc1OC [Compound C1, (R)—N-(1-(3-amino-5-(trifluoromethyl)phenyl)ethyl)-6,7-dimethoxy-2-methylquinazolin-4-amine, reference compound]	> 10	
